“And” between values parts separate entries of the source, which are not always exact repeats. Equal entries are not always repeated. Toxic doses and inconclusive results are not listed.

This experiment has as its system CD2F1 mice, L1210 leukemia ip, survival T/C. Nature of the experiment: NCI In Vivo Anticancer Drug Screen. Data for tumor model L1210 Leukemia (intraperitoneal) in CD2F1 (CDF1) mice. Conditions: higher = longer survival. The gist of the method: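 Tumor-bearing mice (transplanted tumor) were split into treated and vehicle control groups, and the measured endpoint of each treated group was divided by that of its vehicle controls.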

Where [1] appears, read: endpoint: mean survival time, dose: 25.0 mg/kg/injection, schedule: Q01DX009 (ip), vehicle: saline with Tween-80.
Setting [2] is: endpoint: mean survival time, dose: 50.0 mg/kg/injection, schedule: Q01DX009 (ip), vehicle: saline with Tween-80.
The mark [3] stands for this setting: endpoint: mean survival time, dose: 25.0 mg/kg/injection, schedule: Q04DX002 (ip), vehicle: saline with Tween-80.
Setting [4] is: endpoint: mean survival time, dose: 50.0 mg/kg/injection, schedule: Q04DX002 (ip), vehicle: saline with Tween-80.
The mark [5] stands for this setting: endpoint: mean survival time, dose: 100.0 mg/kg/injection, schedule: Q01DX001 (ip), vehicle: saline with Tween-80.
Where [6] appears, read: endpoint: mean survival time, dose: 100.0 mg/kg/injection, schedule: Q04DX002 (ip), vehicle: saline with Tween-80.
Setting [7] is: endpoint: mean survival time, dose: 100.0 mg/kg/injection, schedule: Q01DX009 (ip), vehicle: saline.
[8] abbreviates: endpoint: mean survival time, dose: 200.0 mg/kg/injection, schedule: Q01DX009 (ip), vehicle: saline.
The mark [9] stands for this setting: endpoint: mean survival time, dose: 400.0 mg/kg/injection, schedule: Q01DX009 (ip), vehicle: saline.
The mark [10] stands for this setting: endpoint: mean survival time, dose: 200.0 mg/kg/injection, schedule: Q04DX002 (ip), vehicle: saline with Tween-80.

In the case of `CC(C)(C)CC(C)(C)c1ccc(OCCOc2ccc(C(=O)Nc3ccc([N+](=O)[O-])cc3)cc2)cc1`, the T/C was 87 % of control (endpoint: mean survival time, dose: 100.0 mg/kg/injection, schedule: Q01DX009 (ip), vehicle: Klucel (hydroxypropylcellulose) (HPC)); 96 % of control (endpoint: mean survival time, dose: 100.0 mg/kg/injection, schedule: Q04DX003 (ip), vehicle: Klucel (hydroxypropylcellulose) (HPC)); 105 % of control (endpoint: mean survival time, dose: 200.0 mg/kg/injection, schedule: Q01DX009 (ip), vehicle: Klucel (hydroxypropylcellulose) (HPC)); 98 % of control (endpoint: mean survival time, dose: 200.0 mg/kg/injection, schedule: Q04DX003 (ip), vehicle: Klucel (hydroxypropylcellulose) (HPC)); 94 % of control (endpoint: mean survival time, dose: 400.0 mg/kg/injection, schedule: Q04DX003 (ip), vehicle: Klucel (hydroxypropylcellulose) (HPC)).

As for `Cc1cccc(C)c1NC(=S)NNC(=O)c1ccncc1`, the T/C runs as follows: under setting [1], 101 % of control; under setting [2], 97 % of control; (endpoint: mean survival time, dose: 100.0 mg/kg/injection, schedule: Q01DX009 (ip), vehicle: saline with Tween-80) 92 % of control.

On to `O=C(CC(CC(=O)C(c1ccccc1)c1ccccc1)c1ccccc1)C(c1ccccc1)c1ccccc1`, for which the T/C was 93 % of control (endpoint: mean survival time, dose: 12.5 mg/kg/injection, schedule: Q04DX002 (ip), vehicle: saline with Tween-80); 90 % of control under setting [3]; 86 % of control (endpoint: mean survival time, dose: 200.0 mg/kg/injection, schedule: Q04DX003 (ip), vehicle: saline with Tween-80); 86 % of control (endpoint: mean survival time, dose: 400.0 mg/kg/injection, schedule: Q04DX003 (ip), vehicle: saline with Tween-80).

With `O=c1oc(-c2ccccc2)nc2c(Cl)ccc(Cl)c12`, the T/C was 107 % of control (endpoint: mean survival time, dose: 90.0 mg/kg/injection, schedule: Q04DX003 (ip), vehicle: other); 97 % of control (endpoint: mean survival time, dose: 135.0 mg/kg/injection, schedule: Q04DX003 (ip), vehicle: other); 119 % of control (endpoint: mean survival time, dose: 200.0 mg/kg/injection, schedule: Q04DX003 (ip), vehicle: other); 102 % of control (endpoint: mean survival time, dose: 300.0 mg/kg/injection, schedule: Q04DX003 (ip), vehicle: other).

As to `CC(=O)OCC1OC(N=C=S)C(OC(C)=O)C(OC(C)=O)C1OC(C)=O` (configuration not stated), under setting [2], the T/C is 115 % of control.

In the case of `Cc1[nH]c2ccc(N=CN(C)C)cc2c1C`, the T/C runs as follows: under setting [3], 111 % of control; under setting [4], 111 % of control.

On to `CCC1(OC(=O)CN)C(=O)OCc2c1cc1n(c2=O)Cc2cc3ccccc3nc2-1` (configuration not stated), for which the T/C was 117 % of control and 122 % of control (endpoint: median survival time, dose: 7.5 mg/kg/injection, schedule: Q04DX002 (ip), vehicle: saline); 175 % of control (endpoint: median survival time, dose: 7.5 mg/kg/injection, schedule: Q04HX004 (iv), vehicle: dextrose); 186 % of control (endpoint: median survival time, dose: 7.5 mg/kg/injection, schedule: Q04HX004 (iv), vehicle: other); 172 % of control (endpoint: median survival time, dose: 15.0 mg/kg/injection, schedule: Q04HX004 (iv), vehicle: dextrose); 204 % of control (endpoint: median survival time, dose: 15.0 mg/kg/injection, schedule: Q04HX004 (iv), vehicle: other); 191 % of control and 213 % of control (endpoint: median survival time, dose: 30.0 mg/kg/injection, schedule: Q04DX002 (ip), vehicle: saline). Moreover, the T/C was 226 % of control (endpoint: median survival time, dose: 30.0 mg/kg/injection, schedule: Q04HX004 (iv), vehicle: dextrose); 219 % of control (endpoint: median survival time, dose: 30.0 mg/kg/injection, schedule: Q04HX004 (iv), vehicle: other); 217 % of control (endpoint: median survival time, dose: 40.0 mg/kg/injection, schedule: Q04HX004 (iv), vehicle: other).

Regarding `C1CC[N-]CC1.[Cl][Pt+2][Cl].[NH-]C1CC1`, the T/C by setting is: (endpoint: mean survival time, dose: 3.0 mg/kg/injection, schedule: Q04DX003 (ip), vehicle: water) 100 % of control; (endpoint: mean survival time, dose: 6.25 mg/kg/injection, schedule: Q01DX009 (ip), vehicle: distilled water + Tween-80) 120 % of control; (endpoint: mean survival time, dose: 6.25 mg/kg/injection, schedule: Q01DX009 (ip), vehicle: water) 118 % of control; (endpoint: mean survival time, dose: 25.0 mg/kg/injection, schedule: Q01DX009 (ip), vehicle: water) 119 % of control; (endpoint: mean survival time, dose: 25.0 mg/kg/injection, schedule: Q04DX003 (ip), vehicle: distilled water + Tween-80) 90 % of control; (endpoint: mean survival time, dose: 25.0 mg/kg/injection, schedule: Q04DX003 (ip), vehicle: water) 90 % of control.

As to `Cn1c2ccccc2c2ccc3c(c21)C(=O)C=CC3=O`, the T/C was 100 % of control (endpoint: median survival time, dose: 12.5 mg/kg/injection, schedule: Q01DX009 (ip), vehicle: Klucel (hydroxypropylcellulose) (HPC)); 102 % of control (endpoint: median survival time, dose: 25.0 mg/kg/injection, schedule: Q01DX009 (ip), vehicle: Klucel (hydroxypropylcellulose) (HPC)); 109 % of control (endpoint: median survival time, dose: 50.0 mg/kg/injection, schedule: Q01DX009 (ip), vehicle: Klucel (hydroxypropylcellulose) (HPC)).

`O=C(CC1(Cl)C(F)(F)C(F)(F)C1(F)F)c1ccccc1`: the T/C under setting [5] is 95 % of control.

In the case of `CCCCCCCCCCCc1cc(=O)n(-c2cc(Cl)ccc2Cl)n1C`, the T/C runs as follows: under setting [3], 96 % of control; under setting [4], 88 % of control; under setting [6], 86 % of control.

Consider `NP(=O)(Oc1cccc2c(OP(N)(=O)N(CCCl)CCCl)cccc12)N(CCCl)CCCl` (configuration not stated), for which the T/C reads like this: (endpoint: mean survival time, dose: 31.25 mg/kg/injection, schedule: Q01DX001 (ip), vehicle: distilled water + Tween-80) 95 % of control; (endpoint: mean survival time, dose: 62.5 mg/kg/injection, schedule: Q01DX001 (ip), vehicle: distilled water + Tween-80) 95 % of control; (endpoint: mean survival time, dose: 125.0 mg/kg/injection, schedule: Q01DX001 (ip), vehicle: distilled water + Tween-80) 95 % of control; (endpoint: mean survival time, dose: 250.0 mg/kg/injection, schedule: Q01DX001 (ip), vehicle: distilled water + Tween-80) 97 % of control; (endpoint: mean survival time, dose: 500.0 mg/kg/injection, schedule: Q01DX001 (ip), vehicle: distilled water + Tween-80) 95 % of control.

Take `Nc1ccc(O)c2ccccc12`: the T/C is 111 % of control (endpoint: mean survival time, dose: 1.5 mg/kg/injection, schedule: Q04DX003 (ip), vehicle: other) and 102 % of control (endpoint: mean survival time, dose: 3.0 mg/kg/injection, schedule: Q04DX003 (ip), vehicle: other).

In the case of `O=c1cc[nH]c2cc(Cl)ccc12`, the T/C (endpoint: mean survival time, dose: 100.0 mg/kg/injection, schedule: Q04DX003 (ip), vehicle: alcohol) was 89 % of control and the T/C (endpoint: mean survival time, dose: 200.0 mg/kg/injection, schedule: Q04DX003 (ip), vehicle: alcohol) is 96 % of control.

As to `COC(=O)CC(NC(=O)C(CSC(c1ccccc1)(c1ccccc1)c1ccccc1)NC(c1ccccc1)(c1ccccc1)c1ccccc1)C(=O)OC` (configuration not stated), the T/C (endpoint: mean survival time, dose: 50.0 mg/kg/injection, schedule: Q01DX009 (ip), vehicle: saline) is 95 % of control; the T/C under setting [7] was 92 % of control; the T/C under setting [8] was 89 % of control; the T/C under setting [9] was 91 % of control.

On to `Nc1ccccc1-c1n[nH]c2ccccc12`, for which the T/C under setting [3] was 110 % of control, the T/C under setting [4] is 103 % of control, the T/C under setting [6] was 103 % of control and the T/C under setting [10] was 100 % of control.

Regarding `CC1C(=O)C(Br)CC2C1(C)CCC1C2(C)CCC2(C)C3CC(C)(C)CCC3(C)CCC12C` (configuration not stated), the T/C is 97 % of control (endpoint: mean survival time, dose: 100.0 mg/kg/injection, schedule: Q01DX001 (ip), vehicle: saline); 97 % of control (endpoint: mean survival time, dose: 200.0 mg/kg/injection, schedule: Q01DX001 (ip), vehicle: saline); 97 % of control (endpoint: mean survival time, dose: 400.0 mg/kg/injection, schedule: Q01DX001 (ip), vehicle: saline).

Consider `Cc1c(C=NC(=O)c2ccccc2)c2ccccc2n1C`, for which the T/C reads like this: under setting [6], 100 % of control; under setting [10], 108 % of control; (endpoint: mean survival time, dose: 400.0 mg/kg/injection, schedule: Q04DX002 (ip), vehicle: saline with Tween-80) 96 % of control.

Turning to `CCOC(=O)CC(=O)NCCc1ccccc1OC`, the T/C under setting [5] was 102 % of control; the T/C (endpoint: mean survival time, dose: 200.0 mg/kg/injection, schedule: Q01DX001 (ip), vehicle: saline with Tween-80) is 105 % of control; the T/C (endpoint: mean survival time, dose: 400.0 mg/kg/injection, schedule: Q01DX001 (ip), vehicle: saline with Tween-80) is 102 % of control.

Regarding `NC(=O)NOCc1ccc([N+](=O)[O-])cc1`, the T/C runs as follows: under setting [7], 97 % of control; under setting [8], 96 % of control; under setting [9], 95 % of control.

Turning to `CCCCCCCCCCCCCCCC(=O)N(CCCCN(CCCN(C)C)C(=O)CCCCCCCCCCCCCCC)CCCN(C)C`, the T/C under setting [1] is 93 % of control and the T/C under setting [2] is 91 % of control.

The values are drawn from PubChem BioAssay AID256 (DTP/NCI, 2004).
